In the Deep4Chem optical property database:

Assay: photoluminescence quantum yield (fraction); solvent given as SMILES
[1] = in O=P(c1ccccc1)(c1ccccc1)c1ccccc1Oc1ccccc1P(=O)(c1ccccc1)c1ccccc1

Question: Which photoluminescence quantum yield (in O) does the source give for `CN(C)c1ccc2c(c1)C(C)(C)C(=O)C=C2` here?
Answer: 0.13

Question: What does the source list for `CC1=CC(C)=[N+]2C1=C(c1ccc(N3CCOCC3)cc1)c1c(C)cc(C)n1[B-]2(F)F`?
Answer: photoluminescence quantum yield (in C1CCOC1): 0.011; photoluminescence quantum yield (in CC#N): 0.001; photoluminescence quantum yield (in CC(=O)C(C)(C)C): 0.063; photoluminescence quantum yield (in CC(C)=O): 0.001; photoluminescence quantum yield (in CCCCCC): 0.45; photoluminescence quantum yield (in CCOC(C)=O): 0.029; photoluminescence quantum yield (in CO): 0.002

Question: With `O=C(c1ccc(-n2c3ccccc3c3ccccc32)cc1)c1ccc(-n2c3ccccc3c3ccccc32)cc1` as the molecule, how does the photoluminescence quantum yield (in Cc1ccccc1) read?
Answer: 0.21

Question: What about the photoluminescence quantum yield [1] of the same molecule?
Answer: 0.55

Question: With `CCN(C)c1ccc(C2=C3C(C)=CC(/C=C/c4ccc(OCCCN=[N+]=[N-])cc4)=[N+]3[B-](F)(F)n3c(C)cc(C)c32)cc1` as the molecule, how does the photoluminescence quantum yield (in CO) read?
Answer: 0.69

Question: With `N#Cc1ccc(-n2c3ccccc3c3c2c2ccccc2n3-c2ccccc2)cc1` as the molecule, how does the photoluminescence quantum yield (in Cc1ccccc1) read?
Answer: 0.143

Question: For `Cc1cc2cc3cc(C)c(C)cc3cc2cn1`, which photoluminescence quantum yield (in CCO) is on record?
Answer: 0.44

Question: What does the source list for `COc1ccc2c(c1)c1cc(OC)ccc1n2-c1ccc2c(c1)-c1cc(-n3c4ccc(OC)cc4c4cc(OC)ccc43)ccc1P2(=O)c1ccccc1`?
Answer: photoluminescence quantum yield (in Cc1ccccc1): 0.79; photoluminescence quantum yield (in c1ccc2c(c1)c1ccccc1n2-c1ccc(-c2ccc(-n3c4ccccc4c4ccccc43)cc2)cc1): 0.78

Question: With `CC1(C)C(/C=C/C2=C(Oc3ccc(CCN=C=S)cc3Cl)C(=C/C=C3/N(CCCS(=O)(=O)[O-])c4ccccc4C3(C)C)/CCC2)=[N+](CCCS(=O)(=O)[O-])c2ccccc21` as the molecule, how does the photoluminescence quantum yield (in CO) read?
Answer: 0.14

Question: Which photoluminescence quantum yield (in CC#N) does the source give for `c1cc2c3c(cccc3c1)C(N1CCOCCNCCOCCOCC1)=N2` here?
Answer: 0.0046

Question: With `CCCCn1c(-c2ccc(-c3ccc(-c4ccc(-c5n(CCCC)c6ccccc6[n+]5CCCC)cc4)cc3)cc2)[n+](CCCC)c2ccccc21` as the molecule, how does the photoluminescence quantum yield (in O) read?
Answer: 0.77

Question: With `CC(C)(C)c1cc(C#Cc2ccc3c(C#Cc4cc(C(C)(C)C)cc(C(C)(C)C)c4)cc4c5cc(C#Cc6cc(C(C)(C)C)cc(C(C)(C)C)c6)ccc5c(C#Cc5cc(C(C)(C)C)cc(C(C)(C)C)c5)cc4c3c2)cc(C(C)(C)C)c1` as the molecule, how does the photoluminescence quantum yield (in ClCCl) read?
Answer: 0.626

Question: With `CCCCCCCCCCOc1cc(OCCCCCCCCCC)cc(C2=C3C(C)=CC(/C=C/c4ccc(OC)cc4)=[N+]3[B-](F)(F)n3c(/C=C/c4ccc(OC)cc4)cc(C)c32)c1` as the molecule, how does the photoluminescence quantum yield (in ClC(Cl)Cl) read?
Answer: 0.37

Question: For `c1ccc(-c2nc(-c3nc(-c4ccccc4)c(-c4ccccc4)o3)oc2-c2ccccc2)cc1`, which photoluminescence quantum yield (in C1COCCO1) is on record?
Answer: 0.57

Question: Which photoluminescence quantum yield (in ClC(Cl)Cl) does the source give for `N#CC1=CC(Br)=CC(C#N)=P1(c1ccccc1)c1ccccc1` here?
Answer: 0.52

Question: For `CCCn1c2cccc3oc4cccc5c4[c+](c32)c2c1cccc2n5CCC`, which photoluminescence quantum yield (in CC#N) is on record?
Answer: 0.44

Question: What about the photoluminescence quantum yield (in CO) of the same molecule?
Answer: 0.41

Question: What about the photoluminescence quantum yield (in ClCCl) of the same molecule?
Answer: 0.46

Question: What about the photoluminescence quantum yield (in OCC(O)CO) of the same molecule?
Answer: 0.39

Question: With `CC1(C)c2ccccc2N(c2ccc(-c3nnc(-c4ccc(-n5c6ccccc6c6ccccc65)cc4)o3)cc2)c2ccccc21` as the molecule, how does the photoluminescence quantum yield [1] read?
Answer: 0.67

Question: Which photoluminescence quantum yield (in c1ccccc1) does the source give for `Cc1nc2c(ccc3ccccc32)oc1=O` here?
Answer: 0.198

Question: Which photoluminescence quantum yield [1] does the source give for `N#Cc1cc(C#N)c(-n2c3ccccc3c3cc(-c4ccc5c(c4)c4ccccc4n5-c4cc(-n5c6ccccc6c6ccccc65)c(C#N)cc4C#N)ccc32)cc1-n1c2ccccc2c2ccccc21` here?
Answer: 0.87

Question: Which photoluminescence quantum yield (in C1COCCO1) does the source give for `Clc1nc(Nc2ccccc2)nc(Nc2ccc3c4cccc5cccc(c6cccc2c63)c54)n1` here?
Answer: 0.53

Question: And the photoluminescence quantum yield (in CC#N)?
Answer: 0.45

Question: And the photoluminescence quantum yield (in CCCCOCCCC)?
Answer: 0.49

Question: And the photoluminescence quantum yield (in CCOC(C)=O)?
Answer: 0.43

Question: What does the source list for `COC(=O)c1cc(=O)n(Cc2ccccc2)c2cc(-c3ccc(N(C)C)cc3)sc12`?
Answer: photoluminescence quantum yield (in CC#N): 0.05; photoluminescence quantum yield (in ClCCl): 0.98

Question: With `c1ccc(N(c2ccccc2)c2ccc(N(c3ccccc3)c3ccc4ccc5c(N(c6ccccc6)c6ccc(N(c7ccccc7)c7ccccc7)cc6)ccc6ccc3c4c65)cc2)cc1` as the molecule, how does the photoluminescence quantum yield (in ClCCl) read?
Answer: 0.13

Question: For `CCN(CC)c1ccc2c(-c3ccc(S(=O)(=O)[O-])cc3S(=O)(=O)[O-])c3ccc(=[N+](CC)CC)cc-3oc2c1`, which photoluminescence quantum yield (in CC#N) is on record?
Answer: 0.52

Question: What about the photoluminescence quantum yield (in CCO) of the same molecule?
Answer: 0.68

Question: What about the photoluminescence quantum yield (in CN(C)C=O) of the same molecule?
Answer: 0.51

Question: And the photoluminescence quantum yield (in O)?
Answer: 0.3

Question: Which photoluminescence quantum yield (in C1CCCCC1) does the source give for `COCCC1(CCOC)c2cc(-c3ccc(OC)cc3)ccc2-c2ccc(-c3ccc(OC)cc3)cc21` here?
Answer: 0.61

Question: Which photoluminescence quantum yield (in CO) does the source give for `Brc1cnc(-c2ccncc2)s1` here?
Answer: 0.02

Question: For `c1ccc(-c2nc(-c3ccccc3)c(N(c3ccccc3)c3ccccc3)[se]2)cc1`, which photoluminescence quantum yield (in ClC(Cl)Cl) is on record?
Answer: 0.068

Question: With `CCCCCCCCCc1c2ccccc2cc2c1oc1c3oc4c5oc6cc7ccccc7cc6c5c5ccccc5c4c3c3ccccc3c21` as the molecule, how does the photoluminescence quantum yield (in C1CCOC1) read?
Answer: 0.75

Question: For `COC(=O)CCC1=CC(C#Cc2ccsc2)=[N+]2C1=Cc1c(CCC(=O)OC)cc(C#Cc3ccsc3)n1[B-]2(F)F`, which photoluminescence quantum yield (in ClCCl) is on record?
Answer: 0.39

Question: Which results are given for `CCN(CC)c1ccc2cc(/C=C/c3cccc[n+]3CCCS(=O)(=O)[O-])c(=O)oc2c1`?
Answer: photoluminescence quantum yield (in C1CCOC1): 0.14; photoluminescence quantum yield (in CC#N): 0.11; photoluminescence quantum yield (in CC(C)=O): 0.11; photoluminescence quantum yield (in CS(C)=O): 0.16; photoluminescence quantum yield (in Cc1ccccc1): 0.02; photoluminescence quantum yield (in O): 0.03; photoluminescence quantum yield (in OCC(O)CO): 0.19

Question: Which photoluminescence quantum yield (in ClC(Cl)Cl) does the source give for `C(#Cc1ccc(C#Cc2ccccc2)cc1)c1ccccc1` here?
Answer: 0.5

Question: With `C[Si]1(C)O[Si](C)(C)c2cc3cc4c(cc3cc21)C(=O)c1cc2cc3c(cc2cc1C4=O)[Si](C)(C)O[Si]3(C)C` as the molecule, how does the photoluminescence quantum yield (in ClC(Cl)Cl) read?
Answer: 0.01

Question: With `N#CC1N=c2cc3c4c(cccc4c2=NC1C#N)C(c1ccccc1)=C(c1ccccc1)O3` (configuration not stated) as the molecule, how does the photoluminescence quantum yield (in ClCCl) read?
Answer: 0.17

Question: With `c1ccc2c([SiH](c3c4ccccc4cc4ccccc34)c3c4ccccc4cc4ccccc34)c3ccccc3cc2c1` as the molecule, how does the photoluminescence quantum yield (in ClC(Cl)Cl) read?
Answer: 0.028

Question: With `CNc1ccc2c(c1)-c1ccccc1C2=O` as the molecule, how does the photoluminescence quantum yield (in C1CCCCC1) read?
Answer: 0.045

Question: And the photoluminescence quantum yield (in CC#N)?
Answer: 0.064

Question: What about the photoluminescence quantum yield (in CCO) of the same molecule?
Answer: 0.0065

Question: What about the photoluminescence quantum yield (in c1ccccc1) of the same molecule?
Answer: 0.19

Question: For `C(=C\c1nc2ccccc2s1)/c1ccccc1`, which photoluminescence quantum yield (in C1CCCCC1) is on record?
Answer: 0.04

Question: And the photoluminescence quantum yield (in CO)?
Answer: 0.007
